One molecule from patent US20220290140A1, “TRANS-CYCLOOCTENE LABELED ANTISENSE OLIGONUCLEOTIDES, RADIO LABELED TETRAZINE AND METHODS” (Biogen MA Inc., priority 2019, published 2022) can be followed below.

Series [1] is described as follows: Static PET/CT of spine in NHP, spinal cord ROI with muscle as reference. The series is classed as in vivo. The settings on record: cynomolgus monkey, 24 h post-ASO scan. The protocol:
(§1) Dynamic PET scans (0-120 min) with arterial input function were performed on a female cynomolgous monkey using ^18F-537-Tz (5.7±0.7 mCi, 0.14±0.12 μg) in order to evaluate the tracer's efficacy in non-human primates. Parent fraction of tracer in arterial plasma was determined by extracting tracer using acetonitrile and analysis by radioHPLC. Baseline scans were performed first, measuring tracer kinetics in the brain. Malat1 ASO-TCO (20 mg in 2.4 mL aCSF) was then injected intrathecally under fluoroscopic guidance and ^18F-537-Tz PET/CT imaging performed at 24 h and 168 h under isoflurane anesthesia. Imaging data were co-registered to a cyno brain atlas, and TAC in subregions of interest were derived from them. Static PET/CT scans were acquired in each imaging session, with the field of view (FOV) oriented to capture the spine. This scan took place 130-160 min p.i. of tracer, and an ROI drawn over the spinal cord with muscle as a reference region.

Series [2] can be described thus: Plasma protein binding (PPB). The series is classed as in vitro ADME. As to conditions: rat, read-out: PPB (rat) unbound. An excerpt: (§2) As pretargeting is a 2-component system, an ^18F-Tz was developed to be CNS-penetrant based on cnsPET-MPO modeling (Zhang, L., et al. (2018). J Med Chem 61(8): 3296-3308).
On the set-up of series [3]: species or system mice. The settings on record: mouse, in vivo, 10 min.
From the text: as §2

The next series can be described thus: Microsome stability. As to conditions: microsomes; read-out: Microsome Stability t1/2. Type of series: in vitro ADME.
For series [4] the following is noted: rat, in vivo, 1 mg/kg. The protocol:
Dynamic PET scans were performed with arterial sampling to determine parent fraction of the tracer ^18F-537-Tz in baseline and pretargeted scans. Baseline imaging with a comparison to a homologous block with non-radioactive compound ^19F-537-Tz at 1 mg/kg was performed on a single rat, where non-radioactive compound was administered i.v. 5 min before injection of tracer. Next, three additional rats were imaged at baseline with no ASO-TCO administered. A final three rats received pretargeted scans and were dosed intrathecally with 0.56 mg Malat1 ASO-TCO in 30 μL saline followed by a 40 μL saline flush. 24 h after injection of the ASO, ^18F-537-Tz was injected intravenously and dynamic PET imaging performed.
A metabolite analysis method was developed to enable the tracer kinetic modelling using metabolite corrected plasma activity as an input function. The plasma radioactivity extraction efficiency for all samples was determined and was satisfactory using 1:1 plasma:ACN. The recovery from the HPLC column of the injected radioactivity was determined for each plasma extract injected. Good recovery of the injected radioactivity from the HPLC column was obtained for each plasma extract injection. For the 3 baseline scans, the parent compound fraction of the total activity found in plasma was 86-90% at 5 min, and this fraction decreased to 66-74% at 60 min after ^18F-537-Tz injection. […]

The next series concerns the target T1, BCRP (Homo sapiens, UniProt Q9UNQ0).
T1 construct: expressed in transfected cells; host or cells: MDCK (canine kidney) cells expressing BCRP
T1 sequence (Q9UNQ0 1-655): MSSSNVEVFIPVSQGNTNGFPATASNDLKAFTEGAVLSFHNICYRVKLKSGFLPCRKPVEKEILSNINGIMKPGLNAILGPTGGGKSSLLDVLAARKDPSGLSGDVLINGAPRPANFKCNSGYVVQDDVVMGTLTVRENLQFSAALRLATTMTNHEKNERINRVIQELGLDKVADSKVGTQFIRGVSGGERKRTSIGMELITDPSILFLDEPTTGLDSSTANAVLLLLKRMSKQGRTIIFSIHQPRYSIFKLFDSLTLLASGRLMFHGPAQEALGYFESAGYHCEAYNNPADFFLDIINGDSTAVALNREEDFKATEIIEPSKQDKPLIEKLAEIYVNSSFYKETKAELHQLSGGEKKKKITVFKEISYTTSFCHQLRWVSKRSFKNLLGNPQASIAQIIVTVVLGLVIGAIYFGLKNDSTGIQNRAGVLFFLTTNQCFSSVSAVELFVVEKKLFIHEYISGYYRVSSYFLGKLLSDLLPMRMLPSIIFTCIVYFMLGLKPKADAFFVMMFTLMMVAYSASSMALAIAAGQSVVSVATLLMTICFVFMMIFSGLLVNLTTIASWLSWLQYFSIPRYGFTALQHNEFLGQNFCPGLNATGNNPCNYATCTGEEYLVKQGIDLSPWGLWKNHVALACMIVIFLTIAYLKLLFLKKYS
Briefly: in vitro. As to conditions: dog. Type of series: in vitro ADME.
From the text: as §2

Series [5] can be described thus: Parent fraction and blood kinetics of tracer in arterial plasma in NHP. Type of series: in vivo, cynomolgus monkey. Here is the method: as §1
Series [6] is described as follows: Static PET/CT of upper spine and CSF. The series is classed as in vivo, rat. An excerpt:
The static PET/CT images of ^18F-537-Tz uptake in the upper rat spine are illustrated in FIG. 12. […] There was a 10% and 15% increase in the radioactivity uptake in the spine and CSF when comparing the baseline and post ASO-TCO dosed rats (Table 4).

Series [7] in a line: Pretargeted PET/CT imaging, ASO-TCO i.t. then 18F-Tz i.v. The series is classed as in vivo, Sprague-Dawley rats. Here is the method:
Sprague-Dawley rats were administered ASO-TCO intrathecally (2.5 mM in 30 μL saline). After either 24 hours (center) or 168 hours (right), those rats were then injected I.V. with ^18F-537-Tz (22-30 MBq; […]; 0.2 nmol). Rats were imaged by PET-CT from 75-90 min. post-injection of radiotracer. Control rats (left) received saline only.
FIG. 5 is a bar graph showing Regions of Interest (ROI) drawn from the PET data. Ratios were obtained of % ID/g in tissue of interest (brain and spine) to the reference region (heart). […] Lanes in bar graph depicted from left to right: ASO-TCO (brain:heart); Naive (brain:heart); ASO-TCO (spine:heart); and Naive (spine:heart).
Rats were administered Malat1 ASO-TCO intrathecally (I.T.) and 24 hours later were given ^18F-Tz intravenously (I.V.). They were then imaged 75-90 p.i. by PET/CT.
The same uptake is not seen in rats that received only the ^18F-Tz radiotracer.

Setting [8] is: baseline vs post ASO-TCO dosed rats.
[9] abbreviates: rats, Baseline group, ca. 70-80 min after tracer injection.
[10] abbreviates: rats treated with ASO-TCO vs control rats that received only tracer, P<0.005.

Like-named read-outs stand apart in the source and are kept apart here. Bounds are passed on as bounds.

Regarding `O=C(Cc1ccc(-c2nncnn2)cc1)NCC[18F]` [Compound 1], the “spinal cord SUV normalized to muscle, higher signal than baseline scan” value in [1] is approximately 25%. For the same molecule, the fraction unbound in series [2] was 0.375. Also, in series [3], the brain uptake is 1.7±0.9 % ID. Besides, the half-life in the series “Microsome stability” is 1.4 h. Moreover, in [4] (5 min), the “parent compound fraction of total activity in plasma” value was 82%. Further, the “parent compound fraction of total activity in plasma” value in series [4] (60 min) was 62%. Further, at BCRP, the efflux ratio (usually the permeability from basolateral to apical divided by that in the opposite direction, in the common usage) was determined as 0.51. Moreover, the “Parent fraction, tracer intact” value in [5] (cynomolgus monkey arterial plasma, over the course of imaging) is more than 80%. Also, the “Blood kinetics of the tracer” value in series [5] (cynomolgus monkey, over 30 min) was “uptake and rapid clearance”. In series [6] (setting [8]), the “increase in radioactivity uptake in the CSF” value is given as 15% and the “increase in radioactivity uptake in the spine” value is listed as 10%. For the same molecule, in series [6] (setting [9]), the “Radioactivity uptake CSF” value was determined as 1.18 and the “Radioactivity uptake Spine” value stood at 0.95. For the same molecule, the “Radioactivity uptake Spine” value in series [6] (rats, Pretargeted group (i.t. dosing of ASO-TCO), ca. 70-80 min after tracer injection) came to 1.04. In series [6] (rats, Pretargeted vs Baseline), the “% Change of radioactivity uptake CSF” value is given as 16% and the “% Change of radioactivity uptake Spine” value is on record as 9%. In [7] (rats given Malat1 ASO-TCO I.T. 24 hours before tracer I.V., imaged 75-90 p.i.), the “uptake of tracer in brain and spinal cord (PET/CT images)” value is “specific uptake”. In addition, in series [7] (setting [10]), the “Brain-to-heart ratio from ROIs” value is recorded as “significantly higher” and the “spine-to-heart ratio from ROIs” value is “significantly higher”.
